Publication PMC6974970 (Annals of Clinical Microbiology and Antimicrobials, 2020)
Several values for one entry are separate records, joined by “and”; a condition that tells them apart may be missing. Equal entries are not always repeated. Entries after “also recorded” stand apart in the source; their conditions may differ. Where two headings read alike, the source gives them in different places.

Assay: Pharmacokinetic monitoring of plasma LPV and RTV (HPLC/MS–MS) in TB/HIV co-infected patients on LPV/RTV plus rifabutin
Type: in vivo, human
Conditions: for concentration: read-out: C0 (plasma drug concentration before the morning dose); for Tmax, individual patients: unit from Table 2; for AUC(0-t): read-out: AUC0–12h; for concentration at 12 h: read-out: C12 (plasma drug concentration 12 h post-dose); for C1, individual patients: individual plasma concentration at 1 h; for C2, individual patients: individual plasma concentration at 2 h; for C3, individual patients: individual plasma concentration at 3 h; for C4, individual patients: individual plasma concentration at 4 h; for C6, individual patients: individual plasma concentration at 6 h; for C8, individual patients: individual plasma concentration at 8 h; for C12, individual patients: individual plasma concentration at 12 h; for C0, individual patients: individual plasma concentration before dose, per patient
Experimental: This was a pharmacokinetic study based on the use of LPV and RTV in HIV and tuberculosis co-infected adults. They were being treated with rifabutin 150 mg thrice weekly or rifabutin 300 mg thrice weekly.
The patients were participating in the RIFLOPI study registered on PACTR201310000629390. They were recruited from the Bogodogo and Kossodo district hospitals in Ouagadougou from May 2013 to December 2015. Study inclusion criteria were that the patients were between 18 and 60 years of age, HIV-1 infected with pulmonary tuberculosis confirmed or suspected. […] The 2 weeks minimum delay comes from the time frame of building up full induction effect. The participating patients were divided into two groups. The first group (RBT 150 mg thrice weekly) consisted of nine patients on antiretroviral and anti-tuberculosis treatment including LPV (LPV/RTV 400/100 mg + 2INTI) twice daily in combination with rifabutin 150 mg thrice weekly and standard ethambutol–isoniazid–pyrazinamide. The second group (RBT 300 mg thrice weekly) consisted of seven patients treated with (LPV/RTV 400/100 mg + 2INTI) twice daily in combination with rifabutin 300 mg thrice weekly and standard ethambutol–isoniazid–pyrazinamide. […] Each patient took a daily dose of cotrimoxazole to prevent opportunistic infections associated with HIV.
Pharmacokinetic monitoring was performed after 2 weeks of combined LPV/RTV and RBT treatment. On the day before pharmacokinetic monitoring, patients were admitted and fasted from midnight onwards. The pharmacokinetic assessment was conducted on a day when a dose of RBT was taken. The first measure of the pharmacokinetic monitoring (time zero) was performed on an empty stomach before taking the daily dose of RBT and LPV/RTV. After the first blood sampling, patients immediately (within 5 min) took their rifabutin and LPV/RTV regimen. Subsequent blood samples for pharmacokinetic monitoring were collected at 1, 2, 3, 4, 6, 8 and 12 h after combined drug ingestion. Breakfast (a sandwich and water) was served to the patients 2 h after drug ingestion.
Two to three millilitres of blood was collected in a heparinized primary vial and centrifuged at 3000 rpm for 10 min within 1 h of collection. The plasma was stored at − 20 °C until transportation to the laboratory for the pharmacokinetic analysis.
A high-performance liquid chromatography–mass spectrometry (HPLC/MS–MS) assay previously described by Moyer et al. was used to determine the LPV and RTV plasma concentrations at the Service of Clinical Pharmacology (IRCCS S Matteo, Pavia, Italy). The limit of quantification was 0.05 µg/mL for both drugs. The assay was validated in accordance with the European Medicines Agency (EMA) “Guidelines on bioanalytical method validation. The areas under the plasma concentration–time curve (AUC) were calculated by using the linear trapezoidal rule.
Data were entered using EpiData (http://www.epidata.dk) and Excel and analysed with Stata, version 13 (https://www.stata.com, StataCorp LP; College Station, TX, USA). Descriptive statistics were used to describe the patient’s characteristics and to calculate the frequencies, proportions and medians with interquartile intervals. Statistical comparisons were made using Fisher’s exact test with 5% set as the significance level. For the LPV and RTV pharmacokinetic profile, we determined for each patient the Cmax (peak concentration measured (µg/mL)), the Ctrough (drug plasma concentration measured just prior to administration of the drug dose (µg/mL)), the Tmax (time for Cmax), the area under the curve during a dosing interval (AUC0–12 = plasma concentration * time (µg × h/mL) and the apparent clearance (CL/F, true clearance divided by the true absolute bioavailability).

[1] = first group RBT 150 mg TPW, listed as RTV
[2] = human, plasma, oral, LPV/RTV 400/100 mg twice daily with RBT 150 mg TPW (n = 9), median and IQR
[3] = human, plasma, oral, LPV/RTV 400/100 mg twice daily with RBT 300 mg TPW (n = 7), median and IQR
[4] = second group RBT 300 mg TPW, listed as RTV

## CC(C)c1nc(CN(C)C(=O)N[C@H](C(=O)N[C@@H](Cc2ccccc2)C[C@H](O)[C@H](Cc2ccccc2)NC(=O)OCc2cncs2)C(C)C)cs1 [Ritonavir, ritonavir]
LPV/RTV 400/100 mg twice daily with RBT 150 mg TPW (arm A, n = 9), median and IQR, plasma
  concentration: 2100 ng/mL
LPV/RTV 400/100 mg twice daily with RBT 300 mg TPW (arm B, n = 7), median and IQR, plasma
  concentration: 1600 ng/mL
[1]
  AUC0–12, individual patients: 10800 ng·h/mL and 23500 ng·h/mL and 14800 ng·h/mL and 7800 ng·h/mL and 8900 ng·h/mL and 12800 ng·h/mL and 12200 ng·h/mL and 18500 ng·h/mL
  Cl, individual patients: 2.83 mL/min/kg and 1.3 mL/min/kg and 1.83 mL/min/kg and 4.17 mL/min/kg and 3.17 mL/min/kg and 3 mL/min/kg and 2.5 mL/min/kg
  Cmax, individual patients: 3600 ng/mL and 2900 ng/mL and 1280 ng/mL and 1860 ng/mL and 2260 ng/mL and 2740 ng/mL and 3160 ng/mL
  Tmax, individual patients: 1 h and 4 h and 6 h
  C1, individual patients: 1.91 µg/mL and 3.8 µg/mL and 3.1 µg/mL and 0.4 µg/mL and 1.86 µg/mL and 2 µg/mL
  C2, individual patients: 1.72 µg/mL and 3.6 µg/mL and 2.6 µg/mL and 1.7 µg/mL and 2.5 µg/mL and 2.24 µg/mL
  C3, individual patients: 1.65 µg/mL and 3.5 µg/mL and 2.9 µg/mL and 0.64 µg/mL and 0.4 µg/mL and 1.81 µg/mL
  C4, individual patients: 1.2 µg/mL and 2.7 µg/mL and 1.7 µg/mL and 1.28 µg/mL and 0.5 µg/mL and 2.26 µg/mL
  C6, individual patients: 1.64 µg/mL and 3.3 µg/mL and 1.5 µg/mL and 0.7 µg/mL and 1 µg/mL
  C8, individual patients: 1.24 µg/mL and 2.8 µg/mL and 1.2 µg/mL and 2.4 µg/mL and 1 µg/mL and 1.5 µg/mL
  C12, individual patients: 1.1 µg/mL and 3.6 µg/mL and 0.6 µg/mL and 0.2 µg/mL and 1.33 µg/mL and 1.7 µg/mL
  C0, individual patients: 1850 ng/mL and 4110 ng/mL and 3100 ng/mL and 1200 ng/mL and 2100 ng/mL and 1430 ng/mL
First group RBT 150 mg TPW
  Tmax, individual patients: 3 h
human, plasma, oral, 150 mg, first group RBT 150 mg TPW, read-out: Cmax, individual patients
  Cmax: 1910 ng/mL
[2]
  AUC(0-t): 12700 ng·h/mL
  concentration at 12 h: 1700 ng/mL
human, plasma, oral, LPV/RTV 400/100 mg twice daily with RBT 150 mg TPW (n = 9), median and IQR, read-out: Cmax
  Cmax: 2700 ng/mL
[3]
  Tmax: 2 h
  AUC(0-t): 6600 ng·h/mL
  concentration at 12 h: 600 ng/mL
human, plasma, oral, LPV/RTV 400/100 mg twice daily with RBT 300 mg TPW (n = 7), median and IQR, read-out: CL (apparent clearance, CL/F) (converted)
  CL/F: 4.83 mL/min/kg
human, plasma, oral, LPV/RTV 400/100 mg twice daily with RBT 300 mg TPW (n = 7), median and IQR, read-out: Cmax
  Cmax: 1500 ng/mL
[4]
  C1, individual patients: Low and 0.37 µg/mL and 1.97 µg/mL and 2.14 µg/mL and 1.64 µg/mL and 1.5 µg/mL
  C2, individual patients: 1 µg/mL and 0.4 µg/mL and 0.8 µg/mL and 2.22 µg/mL and 2.43 µg/mL and 1.9 µg/mL and 1.12 µg/mL
  C3, individual patients: 1.33 µg/mL and 0.3 µg/mL and 0.8 µg/mL and 1.41 µg/mL and 2.4 µg/mL and 1.9 µg/mL and 1.2 µg/mL
  C4, individual patients: 1.44 µg/mL and 0.38 µg/mL and 0.9 µg/mL and 0.95 µg/mL and 1.67 µg/mL and 2 µg/mL and 1 µg/mL
  C6, individual patients: 1.22 µg/mL and 0.3 µg/mL and 0.8 µg/mL and 1.45 µg/mL and 1.3 µg/mL and 2.5 µg/mL and 0.5 µg/mL
  C8, individual patients: 1.1 µg/mL and 0.28 µg/mL and 0.9 µg/mL and 0.66 µg/mL and 1 µg/mL and 2 µg/mL and 0.13 µg/mL
  C12, individual patients: 0.62 µg/mL and low and 0.6 µg/mL and 0.53 µg/mL and 0.7 µg/mL and 1.86 µg/mL and Low
  C0, individual patients: below the limit of quantification and Low and 0.41 µg/mL and 0.2 µg/mL and 2.72 µg/mL and 1.84 µg/mL and 1.55 µg/mL and 2.3 µg/mL
  Cl, individual patients: 6.5 mL/min/kg and 13.5 mL/min/kg and 9 mL/min/kg and 2.67 mL/min/kg and 3.33 mL/min/kg and 2.5 mL/min/kg and 4.83 mL/min/kg
  Tmax, individual patients: 4 h and 6 h and 1 h
Patients receiving RBT 300 mg TPW compared to RBT 150 mg TPW, listed as RTV
  reduction of plasma concentrations, RBT 300 mg versus RBT 150 mg: nearly halved; also recorded: nearly half
